Biological target: T1, nitrogen monoxide synthase (NO synthase) (Rattus norvegicus, UniProt P29476)
T1 construct: the supernatant was then decanted off and frozen in portions; from tissue; host or cells: rat cerebellum (homogenate, 20,000 g supernatant)
Assay: HTS-NOS assay (nitrogen monoxide synthase assay)
Assay type: biochemical
Details: compound at 10 μM; enzyme preparation from rat cerebella; [3H]-arginine substrate
Source text: This assay makes it possible to determine the percentage inhibition of NO synthase by a compound of the general formula I used according to the invention by measuring NOS activity on exposure to the compound. NO synthase is here mixed under suitable conditions together with radioactively labelled arginine and the particular compound of the general formula I. After termination of the NO formation reaction at a predetermined time, the quantity of unconverted arginine is directly or indirectly determined. […] This assay may be carried out at follows: • (a) Incubation of the NO synthase with labelled arginine as the substrate in a reaction vessel, • (b) Separation of the labelled arginine from the labelled citrulline optionally arising as a product of the enzymatic reaction at a time at which the concentration of citrulline is rising, • (c) Measurement of the quantity of arginine separated in each case.
Separation is performed by means of a filter plate membrane.
Radioactive arginine is used as the substrate in this HTS-NOS assay. Depending on the type of microtitre plate (MTP), the assay volume may be selected in the range between 25 μl and 250 μl. Depending on the enzyme source used, cofactors and coenzymes are added. The batches are incubated in this microtitre plate (assay MTP) according to step (a) at room temperature and, depending on the enzyme activity used (units), lasts between 5 and 60 minutes. On completion of incubation (step (a)), the plate is placed in a cell harvester, which is equipped with an MTP which has a cation exchange membrane as a filter bottom (filter MTP). All the batches from the assay MTP are transferred into this filter MTP and suction filtered through a cation exchange filter plate, a paper filter loaded with phosphate groups. The filter MTP is then washed with buffer or water. This procedure binds the remaining substrate arginine onto the cation exchanger, while the enzymatically formed radioactive citrulline is quantitatively eluted. Once the filter MTP has been dried and scintillation liquid added, the bound arginine can be counted in the scintillation counter. Low radioactivity indicates an uninhibited NOS reaction. An inhibited enzyme reaction means that the radioactive arginine has not been converted. This means that there is a high level of radioactivity on the filter.
• Arginine, L-[2,3,4-^3H]-monohydrochloride; item no. […] The pH value of the buffer was adjusted to 7.4 at 25° C. • Washing medium: H2O Enzyme Preparation
Rat cerebella were used as the starting tissue. The animals were stunned and killed, the brain tissue, the cerebellum, was dissected out, 1 ml of enzyme preparation buffer (4° C.) was added per cerebellum, and the tissue was disrupted for 1 min at 6000 rpm in a Polytron homogeniser. The mixture was then centrifuged at 4° C. for 15 min at 20,000 g, and the supernatant was then decanted off and frozen in portions at −80° C. (discarding the precipitate).
96-Well MTPs with a well capacity of ≦250 μl were used Pipetting sequence: see table 1:
Once the pipetting operation was complete, a lid was laid on top of this MTP (assay MTP). Incubation at 25° C. (room temperature (RT)) for 5-60 min, depending on the quantity and activity of the enzyme used.
The contents of the assay MTP were then transferred with the assistance of a 96 well cell harvester into a 96 well cation exchange MTP (filter MTP) and suction filtered. A single washing with […] of H2O (from a trough) was then performed.
The plate was then dried for 1 h at 60° C. in a drying cabinet. The bottom of the filter MTP was then carefully sealed from beneath with a “back seal”. 35 μl of scintillating material were then pipetted into each well. The top of the plate was also sealed with a “top seal”. After 1 hour's waiting time, the plate was assessed on the β-counter.

NOS (% inhibition) | inhibition at 10 µM | Compound
40% |  | 3-(5-Bromo-6-methyl-pyridin-2-ylamino)-5-methyl-5-naphthalen-l-yl-dihydro-furan-2-one [Example 53]
 | 40% | Cc1ccc(C2(C)CC(Nc3ccc4cccc(O)c4n3)C(=O)O2)c(C)c1 (centres unmarked) [Example 1, 5-(2,4-Dimethyl-phenyl)-3-(8-hydroxy-quinolin-2-ylamino)-5-methyl-dihydro-furan-2-one]
 | 45% | Cc1cc(C)nc(NC2CC(C)(c3ccc(C)c(C)c3)OC2=O)c1 (centres unmarked) [Example 2, 5-(3,4-Dimethyl-phenyl)-3-(4,6-dimethyl-pyridin-2-ylamino)-5-methyl-dihydro-furan-2-one]
 | 42% | Cc1cc(C)nc(NC2CC(C)(c3ccc(C)cc3C)OC2=O)c1 (centres unmarked) [Example 3, 5-(2,4-Dimethyl-phenyl)-3-(4,6-dimethyl-pyridin-2-ylamino)-5-methyl-dihydro-furan-2-one]
 | 45% | Cc1cc(C)nc(NC2CC(C)(c3ccc(C4CCCCC4)cc3)OC2=O)c1 (centres unmarked) [Example 4, 5-(4-Cyclohexyl-phenyl)-3-(4,6-dimethyl-pyridin-2-ylamino)-5-methyl-dihydro-furan-2-one]
 | 58% | Cc1cc(C)cc(C2(C)CC(Nc3cc(C)cc(C)n3)C(=O)O2)c1 (centres unmarked) [Example 5, 5-(3,5-Dimethyl-phenyl)-3-(4,6-dimethyl-pyridin-2-ylamino)-5-methyl-dihydro-furan-2-one]
 | 40% | Cc1ccnc(NC2CC(C)(c3ccc(C)c(C)c3)OC2=O)c1 (centres unmarked) [Example 6, 5-(3,4-Dimethyl-phenyl)-5-methyl-3-(4-methyl-pyridin-2-ylamino)-dihydro-furan-2-one]
 | 45% | Cc1ccnc(NC2CC(C)(c3ccc(C)cc3C)OC2=O)c1 (centres unmarked) [Example 7, 5-(2,4-Dimethyl-phenyl)-5-methyl-3-(4-methyl-pyridin-2-ylamino)-dihydro-furan-2-one]
 | 41% | Cc1ccnc(NC2CC(C)(c3ccc(C4CCCCC4)cc3)OC2=O)c1 (centres unmarked) [Example 8, 5-(4-Cyclohexyl-phenyl)-5-methyl-3-(4-methyl-pyridin-2-ylamino)-dihydro-furan-2-one]
 | 51% | Cc1cccc(C2(C)CC(Nc3ccc4ccccc4n3)C(=O)O2)c1 (centres unmarked) [Example 9, 5-Methyl-3-(quinolin-2-ylamino)-5-m-tolyl-dihydro-furan-2-one]
 | 61% | Cc1ccc(C2(C)CC(Nc3cc(C)cc(C)n3)C(=O)O2)cc1 (centres unmarked) [Example 10, 3-(4,6-Dimethyl-pyridin-2-ylamino)-5-methyl-5-p-tolyl-dihydro-furan-2-one]
 | 81% | Cc1cccc(C2(C)CC(Nc3cc(C)cc(C)n3)C(=O)O2)c1 (centres unmarked) [Example 11, 3-(4,6-Dimethyl-pyridin-2-ylamino)-5-methyl-5-m-tolyl-dihydro-furan-2-one]
 | 59% | CCOc1ccc(C2(C)CC(Nc3cc(C)cc(C)n3)C(=O)O2)cc1 (centres unmarked) [Example 12, 3-(4,6-Dimethyl-pyridin-2-ylamino)-5-(4-ethoxy-phenyl)-5-methyl-dihydro-furan-2-one]
 | 44% | Cc1cnc(NC2CC(C)(c3ccc(C#N)cc3)OC2=O)c(Br)c1 (centres unmarked) [Example 13, 4-[4-(3-Bromo-5-methyl-pyridin-2-ylamino)-2-methyl-5-oxo-tetrahydro-furan-2-yl]-benzonitrile]
 | 45% | CCCc1cccc(NC2CC(C)(c3ccc(C(C)(C)C)cc3)OC2=O)n1 (centres unmarked) [Example 15, 5-(4-tert-Butyl-phenyl)-5-methyl-3-(6-propyl-pyridin-2-ylamino)-dihydro-furan-2-one]
 | 47% | Cc1ccnc(NC2CC(C)(c3ccc(C(C)(C)C)cc3)OC2=O)c1[N+](=O)[O-] (centres unmarked) [Example 16, 5-(4-tert-Butyl-phenyl)-5-methyl-3-(4-methyl-3-nitro-pyridin-2-ylamino)-dihydro-furan-2-one]

NOS (% inhibition) | inhibition at 10 µM | Compound
 | 43% | Cc1nc(NC2CC(C)(c3ccc(Oc4ccccc4)cc3)OC2=O)ccc1Br (centres unmarked) [Example 17, 3-(5-Bromo-6-methyl-pyridin-2-ylamino)-5-methyl-5-(4-phenoxy-phenyl)-dihydro-furan-2-one]
 | 40% | CC(C)(C)c1ccc(C2(C)CC(Nc3ncccc3[N+](=O)[O-])C(=O)O2)cc1 (centres unmarked) [Example 18, 5-(4-tert-Butyl-phenyl)-5-methyl-3-(3-nitro-pyridin-2-ylamino)-dihydro-furan-2-one]
 | 40% | CC1(c2ccc(Oc3ccccc3)cc2)CC(Nc2ncccc2OCc2ccccc2)C(=O)O1 (centres unmarked) [Example 19, 3-(3-Benzyloxy-pyridin-2-ylamino)-5-methyl-5-(4-phenoxy-phenyl)-dihydro-furan-2-one]
 | 54% | CC(C)(C)c1ccc(C2(C)CC(Nc3ncccc3OCc3ccccc3)C(=O)O2)cc1 (centres unmarked) [Example 20, 3-(3-Benzyloxy-pyridin-2-ylamino)-5-(4-tert-butyl-phenyl)-5-methyl-dihydro-furan-2-one]
 | 91% | Cc1cc(C)nc(NC2CC(C)(c3ccc(Oc4ccccc4)cc3)OC2=O)c1 (centres unmarked) [Example 21, 3-(4,6-Dimethyl-pyridin-2-ylamino)-5-methyl-5-(4-phenoxy-phenyl)-dihydro-furan-2-one]
 | 44% | Cc1cc(C)nc(NC2CC(C)(c3ccc(C(C)(C)C)cc3)OC2=O)c1 (centres unmarked) [Example 22, 5-(4-tert-Butyl-phenyl)-3-(4,6-dimethyl-pyridin-2-yl-amino)-5-methyl-dihydrofuran-2-one]
 | 79% | Cc1ccnc(NC2CC(C)(c3ccc(Oc4ccccc4)cc3)OC2=O)c1 (centres unmarked) [Example 23, 5-Methyl-3-(4-methyl-pyridin-2-ylamino)-5-(4-phenoxy-phenyl)-dihydro-furan-2-one]
 | 84% | Cc1ccnc(NC2CC(C)(c3ccc(C(C)(C)C)cc3)OC2=O)c1 (centres unmarked) [Example 24, 5-(4-tert-Butyl-phenyl)-5-methyl-3-(4-methyl-pyridin-2-ylamino)-dihydro-furan-2-one]
 | 45% | CC1(c2ccc(C#N)cc2)CC(Nc2ncc(Br)cc2[N+](=O)[O-])C(=O)O1 (centres unmarked) [Example 25, 4-[4-(5-Bromo-3-nitro-pyridin-2-ylamino)-2-methyl-5-oxo-tetrahydro-furan-2-yl]-benzonitrile]
 | 43% | CC1(c2ccc(C#N)cc2)CC(Nc2ncc(Br)cn2)C(=O)O1 (centres unmarked) [Example 26, 4-[4-(5-Bromo-pyrimidin-2-ylamino)-2-methyl-5-oxo-tetrahydro-furan-2-yl]-benzonitrile]
 | 43% | CCCc1cccc(NC2CC(C)(c3cc4ccccc4s3)OC2=O)n1 (centres unmarked) [Example 27, 5-Benzo[b]thiophen-2-yl-5-methyl-3-(6-propyl-pyridin-2-ylamino)-dihydro-furan-2-one]
 | 68% | Cc1cc(C)nc(NC2CC(C)(c3ccc(C(C)C)cc3)OC2=O)c1 (centres unmarked) [Example 28, 3-(4,6-Dimethyl-pyridin-2-ylamino)-5-(4-isopropyl-phenyl)-5-methyl-dihydro-furan-2-one]
 | 40% | Cc1cc(C)nc(NC2CC(C)(c3cc4ccccc4o3)OC2=O)c1 (centres unmarked) [Example 29, 5-Benzofuran-2-yl-3-(4,6-dimethyl-pyridin-2-ylamino)-5-methyl-dihydro-furan-2-one]
 | 41% | Cc1ccnc(NC2CC(C)(c3cc4ccccc4s3)OC2=O)c1 (centres unmarked) [Example 30, 5-Benzo[b]thiophen-2-yl-5-methyl-3-(4-methyl-pyridin-2-ylamino)-dihydro-furan-2-one]
 | 44% | Cc1ccnc(NC2CC(C)(c3cc4ccccc4o3)OC2=O)c1 (centres unmarked) [Example 31, 5-Benzofuran-2-yl-5-methyl-3-(4-methyl-pyridin-2-ylamino)-dihydro-furan-2-one]

Compound | NOS (% inhibition) | inhibition at 10 µM
Cc1cnc(NC2CC(C)(c3ccc(C(C)(C)C)cc3)OC2=O)c(Br)c1 (centres unmarked) [Example 14, 3-(3-Bromo-5-methyl-pyridin-2-ylamino)-5-(4-tert-butyl-phenyl)-5-methyl-dihydro-furan-2-one] |  | 48%

— patent US6943181B2, “Use of substituted gamma-lactone compounds as pharmaceutical preparations” (Grunenthal GmbH, priority 2001, dated 2005)
